The subject of this experiment is NF-κ B. Put plainly: Inhibitory activity of NF-κ B activation, luciferase reporter assay in HepG2 under TNF-α stimulation. The class given is cell-based, human. As to conditions: HepG2, TNF-α (40 ng/ml), 4 hours; for inhibition at 1 µg/mL / inhibition at 10 µg/mL: Homo sapiens; for Inhibitory Ratio of NF-κ B Activation(%) Drug Concentration 1 μg/mL / inhibition at 1 µg/mL: 1 μg/mL; for inhibition at 1 µg/mL: read-out: Inhibitory Ratio of NF-κ B Activation(%) Drug Concentration 1 μg/mL; for Inhibitory Ratio of NF-κ B Activation(%) Drug Concentration 10 μg/mL / inhibition at 10 µg/mL: 10 μg/mL; for inhibition at 10 µg/mL: read-out: Inhibitory Ratio of NF-κ B Activation(%) Drug Concentration 10 μg/mL. How it is done:
Using a transfection reagent(Effectene; QIAGEN), the human hepatoma cell strain HepG2 was transfected with a plasmid(pNF κ B-Luc Reporter Plasmid; […]) which is integrated with an oligonucleotide having five tandem copies of NF-κ B binding sequences([…]) on a upstream region of firefly luciferase gene(Luc) according to the QIAGEN's protocol, and the cells were incubated for 6 to 24 hours. After the addition of TNF-α (40 ng/ml) in the presence or absence of a test compound, the cells were incubated for 4 hours, and intracellular luciferase activity was measured by using PicaGene LT (TOYO INK MFG Co., Ltd.) and a chemical luminescence measurement apparatus ([…]luor Plus; TECAN). The inhibitory ratio was measured as a ratio relative to the value of a luciferase activity in the absence of the test compound.
(In general: Reporter assays use an easily measured gene product as a stand-in for the process of interest.)

The values that follow come from patent publication US20060089395A1, “Nf-kb activation inhibitors” (priority 2002, published 2006).

On to `O=C(Nc1cc(C(F)(F)F)cc(C(F)(F)F)c1)c1c(O)cccc1O` [Compound No. 52], for which the “Inhibitory Ratio of NF-κ B Activation(%) Drug Concentration 1 μg/mL” value is given as 96.4% and the “Inhibitory Ratio of NF-κ B Activation(%) Drug Concentration 10 μg/mL” value was found to be 97.3%.
On the same counts, the results for `Cc1ccc(C(=O)Nc2cc(C(F)(F)F)cc(C(F)(F)F)c2)c(O)c1` [Compound No. 53] are 93.3% and 94.5%.
`O=C(Nc1cc(C(F)(F)F)cc(C(F)(F)F)c1)c1cc(Br)c(O)cc1O` [Compound No. 54]: the “Inhibitory Ratio of NF-κ B Activation(%) Drug Concentration 10 μg/mL” value was 86.5%.
Turning to `O=C(Nc1cc(C(F)(F)F)cc(C(F)(F)F)c1)c1ccc(O)cc1O` [Compound No. 55], the “Inhibitory Ratio of NF-κ B Activation(%) Drug Concentration 1 μg/mL” value is reported as 10.8% and the “Inhibitory Ratio of NF-κ B Activation(%) Drug Concentration 10 μg/mL” value turned out to be 88.6%.
On the same counts, the results for `O=C(Nc1cc(C(F)(F)F)cc(C(F)(F)F)c1)c1cc(Cl)cc(Cl)c1O` [Compound No. 56] are 89.4% and 95.1%.
On to `O=C(Nc1cc(C(F)(F)F)cc(C(F)(F)F)c1)c1cccc(O)c1O` [Compound No. 57], for which the “Inhibitory Ratio of NF-κ B Activation(%) Drug Concentration 10 μg/mL” value is 91.9%.
On to `Cc1cccc(C(=O)Nc2cc(C(F)(F)F)cc(C(F)(F)F)c2)c1O` [Compound No. 58, N-[3,5-bis(trifluoromethyl)phenyl]-2-hydroxy-3-methylbenzamide], for which the inhibition at 1 µg/mL amounted to 88.2% and the inhibition at 10 µg/mL came to 95%.
On to `COc1cccc(C(=O)Nc2cc(C(F)(F)F)cc(C(F)(F)F)c2)c1O` [Compound No. 59], for which the “Inhibitory Ratio of NF-κ B Activation(%) Drug Concentration 1 μg/mL” value is 41.9% and the “Inhibitory Ratio of NF-κ B Activation(%) Drug Concentration 10 μg/mL” value is 94.7%.
On the same counts, the results for `CC(C)(C)CC(C)(C)c1ccc(O)c(C(=O)Nc2cc(C(F)(F)F)cc(C(F)(F)F)c2)c1` [Compound No. 60] are 94.0% and 99.1%.
Consider `O=C(Nc1cc(C(F)(F)F)cc(C(F)(F)F)c1)c1c(O)c(Cl)cc(Cl)c1Cl` [Compound No. 61], for which the “Inhibitory Ratio of NF-κ B Activation(%) Drug Concentration 1 μg/mL” value was 95.1% and the “Inhibitory Ratio of NF-κ B Activation(%) Drug Concentration 10 μg/mL” value is listed as 97.2%.
On the same counts, the results for `CC(C)(C)c1cc(C(=O)Nc2cc(C(F)(F)F)cc(C(F)(F)F)c2)c(O)c(C(C)(C)C)c1` [Compound No. 62] are 37.0% and 86.9%.
In the case of `O=C(Nc1cc(C(F)(F)F)cc(C(F)(F)F)c1)c1cccc(Cl)c1O` [Compound No. 64], the “Inhibitory Ratio of NF-κ B Activation(%) Drug Concentration 1 μg/mL” value came out at 84.9% and the “Inhibitory Ratio of NF-κ B Activation(%) Drug Concentration 10 μg/mL” value was 94.1%.
On the same counts, the results for `COc1ccc(C(=O)Nc2cc(C(F)(F)F)cc(C(F)(F)F)c2)c(O)c1` [Compound No. 65] are 83.3% and 89.8%.
Regarding `O=C(Nc1cc(C(F)(F)F)cc(C(F)(F)F)c1)c1cc2ccccc2cc1O` [Compound No. 72], the “Inhibitory Ratio of NF-κ B Activation(%) Drug Concentration 1 μg/mL” value amounted to 94.6% and the “Inhibitory Ratio of NF-κ B Activation(%) Drug Concentration 10 μg/mL” value came out at 95.0%.
For `O=C(Nc1cc(C(F)(F)F)cc(C(F)(F)F)c1)c1scc(Br)c1O` [Compound No. 74, 4-Bromo-3-hydroxy-N-[3,5-bis(trifluoromethyl)phenyl]thiophene-2-carboxamide], the inhibition at 1 µg/mL came to 64% and the inhibition at 10 µg/mL was determined as 97.5%.
Consider `O=C(Nc1cc(C(F)(F)F)cc(C(F)(F)F)c1)c1cc(Cl)cnc1O` [Compound No. 75], for which the “Inhibitory Ratio of NF-κ B Activation(%) Drug Concentration 1 μg/mL” value was 58.1% and the “Inhibitory Ratio of NF-κ B Activation(%) Drug Concentration 10 μg/mL” value is 82.2%.
On the same counts, the results for `O=C(Nc1cc(C(F)(F)F)cc(C(F)(F)F)c1)c1cc(Cl)ccc1O` [Compound No. 80] are 46.3% and 73.0%.
On the same counts, the results for `CC(=O)Oc1ccc(Cl)cc1C(=O)Nc1cc(C(F)(F)F)ccc1C(F)(F)F` [Compound No. 82] are 94.0% and 96.8%.
As to `Cc1ccc(O)c(C(=O)Nc2cc(C(F)(F)F)ccc2C(F)(F)F)c1` [Compound No. 84], the “Inhibitory Ratio of NF-κ B Activation(%) Drug Concentration 1 μg/mL” value came to 92.6% and the “Inhibitory Ratio of NF-κ B Activation(%) Drug Concentration 10 μg/mL” value is reported as 96.6%.
On the same counts, the results for `O=C(Nc1cc(F)cc(C(F)(F)F)c1)c1cc(Cl)ccc1O` [Compound No. 85] are 94.7% and 98.9%.
On the same counts, the results for `O=C(Nc1cc(C(F)(F)F)ccc1F)c1cc(Cl)ccc1O` [Compound No. 87] are 93.1% and 95.9%.
Turning to `CC(=O)Oc1ccc(Cl)cc1C(=O)Nc1cc(C(F)(F)F)ccc1Cl` [Compound No. 89], the “Inhibitory Ratio of NF-κ B Activation(%) Drug Concentration 1 μg/mL” value was 96.7% and the “Inhibitory Ratio of NF-κ B Activation(%) Drug Concentration 10 μg/mL” value is recorded as 97.4%.
On the same counts, the results for `O=C(Nc1cc(C(F)(F)F)ccc1[N+](=O)[O-])c1cc(Cl)ccc1O` [Compound No. 91] are 86.3% and 96.7%.
For the molecule `COc1ccc(C(F)(F)F)cc1NC(=O)c1cc(Cl)ccc1O` [Compound No. 95], the “Inhibitory Ratio of NF-κ B Activation(%) Drug Concentration 1 μg/mL” value is listed as 91.8% and the “Inhibitory Ratio of NF-κ B Activation(%) Drug Concentration 10 μg/mL” value is 98.5%.
Consider `CSc1ccc(C(F)(F)F)cc1NC(=O)c1cc(Cl)ccc1O` [Compound No. 96], for which the “Inhibitory Ratio of NF-κ B Activation(%) Drug Concentration 1 μg/mL” value is given as 94.6% and the “Inhibitory Ratio of NF-κ B Activation(%) Drug Concentration 10 μg/mL” value is recorded as 99.1%.
`O=C(Nc1cc(C(F)(F)F)ccc1N1CCCC1)c1cc(Br)ccc1O` [Compound No. 97]: the “Inhibitory Ratio of NF-κ B Activation(%) Drug Concentration 1 μg/mL” value came to 95.8% and the “Inhibitory Ratio of NF-κ B Activation(%) Drug Concentration 10 μg/mL” value came out at 97.8%.
On the same counts, the results for `O=C(Nc1cc(C(F)(F)F)ccc1N1CCOCC1)c1cc(Br)ccc1O` [Compound No. 98] are 81.8% and 86.4%.
For the molecule `O=C(Nc1cc(C(F)(F)F)ccc1Cl)c1cc([N+](=O)[O-])ccc1O` [Compound No. 99], the “Inhibitory Ratio of NF-κ B Activation(%) Drug Concentration 1 μg/mL” value amounted to 54.3% and the “Inhibitory Ratio of NF-κ B Activation(%) Drug Concentration 10 μg/mL” value stood at 98.0%.
On the same counts, the results for `Cc1ccc(O)c(C(=O)Nc2cc(C(F)(F)F)ccc2Cl)c1` [Compound No. 100] are 85.6% and 95.1%.
On the same counts, the results for `COc1ccc(O)c(C(=O)Nc2cc(C(F)(F)F)ccc2Cl)c1` [Compound No. 101] are 17.7% and 82.0%.
With `Cc1ccc(O)c(C(=O)Nc2cc(C(F)(F)F)ccc2C)c1` [Compound No. 102], the “Inhibitory Ratio of NF-κ B Activation(%) Drug Concentration 1 μg/mL” value came to 89.3% and the “Inhibitory Ratio of NF-κ B Activation(%) Drug Concentration 10 μg/mL” value was determined as 98.3%.
On the same counts, the results for `O=C(Nc1cc(Br)cc(C(F)(F)F)c1)c1cc(Cl)ccc1O` [Compound No. 104] are 97.2% and 99.2%.
As for `COc1cc(NC(=O)c2cc(Cl)ccc2O)cc(C(F)(F)F)c1` [Compound No. 105], the “Inhibitory Ratio of NF-κ B Activation(%) Drug Concentration 1 μg/mL” value is given as 94.6% and the “Inhibitory Ratio of NF-κ B Activation(%) Drug Concentration 10 μg/mL” value came to 97.5%.
On the same counts, the results for `O=C(Nc1cc(C(F)(F)F)ccc1N1CCOCC1)c1cc(Cl)ccc1O` [Compound No. 106] are 92.3% and 92.1%.
For the molecule `O=C(Nc1cc(C(F)(F)F)ccc1Br)c1cc(Cl)ccc1O` [Compound No. 107], the “Inhibitory Ratio of NF-κ B Activation(%) Drug Concentration 1 μg/mL” value amounted to 94.9% and the “Inhibitory Ratio of NF-κ B Activation(%) Drug Concentration 10 μg/mL” value worked out at 96.2%.
`COC(=O)c1cc(NC(=O)c2cc(Cl)ccc2O)cc(C(F)(F)F)c1` [Compound No. 108, 5-chloro-2-hydroxy-N-[3-methoxycarbonyl-5-(trifluoromethyl)phenyl]benzamide]: the inhibition at 1 µg/mL turned out to be 41.5% and the inhibition at 10 µg/mL was found to be 88.4%.
`O=C(Nc1cc(C(F)(F)F)ccc1Oc1ccc2ccccc2c1)c1cc(Cl)ccc1O` [Compound No. 110]: the “Inhibitory Ratio of NF-κ B Activation(%) Drug Concentration 1 μg/mL” value is reported as 96.5% and the “Inhibitory Ratio of NF-κ B Activation(%) Drug Concentration 10 μg/mL” value is given as 98.7%.
On the same counts, the results for `O=C(Nc1cc(C(F)(F)F)ccc1Oc1ccc(Cl)cc1Cl)c1cc(Cl)ccc1O` [Compound No. 111] are 96.5% and 99.7%.
On to `O=C(Nc1cc(C(F)(F)F)ccc1N1CCC(C(F)(F)F)CC1)c1cc(Cl)ccc1O` [Compound No. 112], for which the “Inhibitory Ratio of NF-κ B Activation(%) Drug Concentration 1 μg/mL” value is 96.5% and the “Inhibitory Ratio of NF-κ B Activation(%) Drug Concentration 10 μg/mL” value stood at 95.7%.
